From patent publication US20250204541A1, “GAS PHASE TREATMENT OF PRODUCE” (priority 2022, published 2025)
Entries after “also recorded” stand apart in the source; their conditions may differ.

Key:
Botrytis cinerea (Bc) = assay: Antifungal activity of AITC vapor against Botrytis cinerea in strawberries; assay type: in vivo; settings: Example 17; suspended strawberries; coating agent 50 g/L dip; AITC 125 μL 30 minutes; by day 5
mandarins = assay: Visible appearance of vapor-treated mandarins; assay type: in vivo; settings: 72 hours vapor of 3 mL in a Petri dish
Protocol: Example 1. The antifungal activity of diallyl disulfide (DADS) vapor against Penicillium digitatum (Pd) was tested in mandarins. All samples were wounded by puncturing with a screw and infected by dispensing 1000 Pd spores suspended in 10 μL of water into each wound. The test groups consisted of mandarins that were: untreated; dipped in a solution of 1 g/L of imazalil; and exposed for 72 hours to the vapor of 3 mL of DADS in a Petri dish.
Example 2. The antifungal activity of allyl isothiocyanate (AITC) and DADS vapor was tested against Pd and Penicillium italicum (Pi) in mandarins. All samples were wounded by puncturing with a screw. Mandarins were infected by dispensing either 1000 Pd spores or 1000 Pi spores suspended in 10 μL into the wound. The test groups consisted of mandarins that were: uninfected and untreated; uninfected and treated by dipping in a solution of 1 g/L of imazalil; infected with Pd and untreated; infected with Pd and exposed to AITC; infected with Pd and exposed to DADS; infected with Pi and untreated; infected with Pi and exposed to AITC; and infected with Pi and exposed to DADS. Exposure to AITC or DADS consisted of exposing the mandarins for 72 hours to the vapor of 3 mL of the respective compound dispensed in a Petri dish. […]
Example 5. […] The test groups were then left at ambient temperature, high humidity, and assessed for Pd mold after 6 days. […]

Structure (SMILES)	reduction in incidence of mold versus the untreated test group (Botrytis cinerea (Bc))	visible appearance of treated fruit (mandarins)
C=CCN=C=S [AITC, allyl isothiocyanate]	over 80%	–
C=CCSSCC=C [DADS, diallyl disulfide]	–	no visible degradation or discoloration; also recorded: No difference in appearance
